Structures are written as SMILES. Active and inactive are the calls of the source. The rule behind the calls is not given here. Some results are limits rather than exact numbers.

By EC50 is commonly meant the concentration at which the effect is half-maximal. Higher therefore signals weaker potency. Broadly, the IC50 is the concentration needed to halve the response being measured.

Assay [1] can be described thus: inhibitors of Her2 kinase expression, dose response, cell-based, AlphaScreen, CellTiter-Glo viability (AID 742). The conditions noted are these: human cells, Her2 expression AlphaScreen; CTG viability; at 9.62 µM (top of the series). (Alpha assays give light when donor and acceptor beads are brought close together.)
The test system of assay [2] is human cells, Her2 expression AlphaScreen; CTG viability. Described as above. The conditions noted are these: for EC50: viability, CellTiter-Glo.

Regarding `Nc1c(C(=O)Nc2ccccc2)sc2nc(-c3ccco3)ccc12`, the Her2 inhibition in assay [1] was 18.3% (inactive). The EC50 in assay [2] is more than 9.62 µM.

Regarding `CC1CN=C(N(C(=O)Nc2ccccc2)c2ccc(S(=O)(=O)N3CCOCC3)cc2)S1` (stereo not given), the Her2 inhibition in assay [1] is -5.35% (inactive). Also, the EC50 in assay [2] was more than 9.62 µM.

Turning to `CCN(CC(=O)NC1CCCCCC1)S(=O)(=O)c1ccccc1`, in assay [1], the Her2 inhibition is -2.97% (inactive). The 50% effective concentration (EC50) in assay [2] was more than 9.62 µM.

Consider `COCCn1c(Cc2ccccc2)nnc1SCC(=O)N(C)C`, for which, in assay [1], the Her2 inhibition was 6.46% (inactive). Besides, the EC50 in assay [2] was more than 9.62 µM.

Consider `CC(C)n1c(SCc2ccc(Cl)cc2)nc2c1c(=O)[nH]c(=O)n2C`, for which the Her2 inhibition in assay [1] is -14.2% (inactive). This molecule also had a 50% effective concentration (EC50) in assay [2] of more than 9.62 µM.

For the molecule `CCCOc1ccc(C(=O)CCN2CCCCC2)cc1`, in assay [1], the Her2 inhibition was -16.8% (inactive). This molecule registered an EC50 in assay [2] of more than 9.62 µM.

With `CSCC[C@H](NC(=O)NCc1ccc(F)cc1)C(=O)O`, in assay [1], the Her2 inhibition is -11.5% (inactive). In assay [2], the half-maximal effective concentration (EC50) was more than 9.62 µM.

Turning to `C/C(=N\O)C(=O)C(CN1CCCCC1)CN1CCCCC1`, the Her2 inhibition in assay [1] is 15.2% (inactive). The molecule also came in with a 50% effective concentration (EC50) in assay [2] of more than 9.62 µM.

`Cc1nc2nc(-c3ccco3)nn2c(C)c1Cl`: in assay [2], the concentration for half-maximal inhibition (IC50) was 2.6 µM and the EC50 is more than 9.62 µM.

For `CS(=O)(=O)c1nc(-c2ccccc2)cc(C(F)(F)F)n1`, in assay [2], the IC50 is 9.06 µM and the EC50 is more than 9.62 µM.

Take `Cc1ccc(-c2csc3ncnc(Sc4nnc(CN5CCCCCC5=O)o4)c23)cc1`: in assay [2], the IC50 was 4.53 µM and the EC50 is more than 9.62 µM.

For `O=C(CSc1nc2cc(Cl)ccc2s1)c1ccco1`, in assay [2], the IC50 was 5.09 µM and the EC50 is more than 9.62 µM.

For the molecule `O=S(=O)(C/C(=C/CO)S(=O)(=O)c1ccccc1)c1ccccc1`, in assay [2], the IC50 is 5.12 µM and the half-maximal effective concentration (EC50) was more than 9.62 µM.

On to `CS(=O)(=O)c1nc(-c2ccco2)cc(C(F)(F)F)n1`, for which, in assay [2], the IC50 is 9.15 µM and the EC50 is more than 9.62 µM.

Consider `O=S1(=O)C=C(Sc2nc3ccccc3s2)c2ccccc21`, for which, in assay [2], the 50% inhibitory concentration (IC50) was 5.63 µM and the EC50 was more than 9.62 µM.

Turning to `Cc1nc(NC(=O)c2ccco2)sc1C(=O)Nc1ccc(Br)cc1`, in assay [2], the IC50 was 1.49 µM and the EC50 is more than 9.62 µM.

Take `COC(=O)c1sccc1NC(=O)c1ccc(Cl)s1`: in assay [2], the IC50 is 9 µM and the EC50 is more than 9.62 µM.

`CCCCS(=O)(=O)/C=C\C=C/S(=O)(=O)CCCC`: in assay [2], the half-maximal inhibitory concentration (IC50) is 4.07 µM and the EC50 was more than 9.62 µM.

Take `CCCn1c(NC(=O)c2ccco2)nc2ccccc21`: in assay [2], the IC50 was 2.13 µM and the EC50 was more than 9.62 µM.

As for `CC(=O)c1sc2nc(-c3cccs3)cc(C(F)(F)F)c2c1N`, in assay [2], the half-inhibitory concentration (IC50) is 9.32 µM and the EC50 is more than 9.62 µM.

On to `CCn1nc(-c2cccs2)nc2c(=O)n(C)c(=O)nc1-2`, for which, in assay [2], the IC50 was 2.55 µM (inactive) and the EC50 is less than 0.024 µM.

Regarding `COc1ccc(C(=O)C(CN2CCCC2)c2ccccc2)cc1` (stereo not given), in assay [2], the IC50 was 8.95 µM and the EC50 was more than 9.62 µM.

Take `O=S(=O)(CC(CN1CCCC1)N1CCCC1)c1ccc2ccccc2c1` (stereo not given): in assay [2], the IC50 is 7.29 µM and the EC50 was more than 9.62 µM.

Consider `Cc1nn2c(-c3ccco3)nnc2c2ccccc12`, for which, in assay [2], the concentration for half-maximal inhibition (IC50) was 2.38 µM and the EC50 is more than 9.62 µM.

`CN(C)CC(C(=O)c1ccccc1)c1ccccc1` (stereo not given): in assay [2], the IC50 was 8.84 µM and the EC50 was more than 9.62 µM.

Turning to `COC(=O)/C(=C1/Oc2cc(C)oc(=O)c2S1)C(F)(F)F`, in assay [2], the IC50 is 3.78 µM (inactive) and the EC50 is less than 0.024 µM.

With `CCN1/C(=C/C(=O)c2ccco2)Sc2ccccc21`, in assay [2], the IC50 is 3.63 µM and the EC50 was more than 9.62 µM.

Take `Cn1c(C(C#N)C(=O)c2ccco2)nc2ccccc21` (stereo not given): in assay [2], the IC50 was 2.25 µM and the EC50 is more than 9.62 µM.

On to `O=S1(=O)C=C(Sc2nnc(-c3ccccc3)o2)c2ccccc21`, for which, in assay [2], the IC50 was 7.54 µM and the half-maximal effective concentration (EC50) is more than 9.62 µM.

For `CSC1=N/C(=C\C=C\c2cccs2)C(=O)S1`, in assay [2], the IC50 is 8.09 µM and the EC50 was more than 9.62 µM.

For the molecule `Nc1nnnn1/N=C/C(Br)=C/c1ccccc1`, in assay [2], the IC50 was 3.58 µM and the EC50 was more than 9.62 µM.

`CS(=O)(=O)c1nc(-c2cccs2)cc(C(F)(F)F)n1`: in assay [2], the IC50 is 7.37 µM and the EC50 was more than 9.62 µM.

As for `Cc1ccc(CNC(=O)c2cc3c(-c4ccc(Cl)cc4)nn(C)c3s2)o1`, in assay [2], the IC50 was 6.48 µM and the EC50 is more than 9.62 µM.

In the case of `Cn1ncnc2c(=O)n(C)c(=O)nc1-2`, in assay [2], the IC50 is 2.24 µM (inactive) and the EC50 was less than 0.024 µM.

Take `O=S1(=O)C=C(Sc2nc3cc(Cl)ccc3o2)c2ccccc21`: in assay [2], the 50% inhibitory concentration (IC50) was 9.25 µM and the EC50 was more than 9.62 µM.
